Assay results: patent US11571423B2, “Small molecule modulators of human sting” (Curadev Pharma Limited, priority 2017, dated 2023)

Target: hSTING(R232) (Homo sapiens, UniProt Q86WV6, H232R)
Assay: Luciferase reporter assay in HEK293T-hSTING-Luciferase cells, R232 (wild type) human STING
Type: cell-based
Conditions: 20 hr stimulation, read-out: R232 human activity (EC50 range)
From the text: Stable Cell Line Generation • a) Stable STING expressing cells—Stable HEK293T STING-expressing cell lines were generated using plasmids purchased from Invivogen, CA, USA, that contain STING cDNA cloned into the pUNO-1 vector under hEF1-HTLV promoter and containing the Blasticidin selection cassette. The plasmids hSTING(R232), hSTING(H232), hSTING(HAQ) were directly procured from Invivogen while hSTING (AQ) and hSTING (Q) were derived from hSTING(HAQ) and hSTING (R232) plasmids respectively by using a PCR based site directed mutagenesis method. These vectors were individually transfected into HEK293T cells using Lipofectamine (Invitrogen) and transfected cells were selected under Blasticidin selection. These transfected cells were further subjected to clonal selection using the limiting dilution method to obtain clonally pure populations of HEK cells transfected with each of the above mentioned human STING variants. Only those clones were selected in which ligand independent activation of STING was minimal. • b) Stable Luciferase reporter gene expressing cells—Stable HEK293T Luciferase reporter gene expressing cell lines were generated using pCDNA4 plasmids under an IRF-inducible promoter. This promoter is comprised of five tandem interferon-stimulated response elements (ISRE) fused to an ISG54 minimal promoter. This vector was transfected into HEK293T cells using Lipofectamine (Invitrogen) and transfected cells were selected under Zeocin selection. These transfected cells were further subjected to clonal selection using the limiting dilution method to obtain clonally pure populations of HEK cells transfected the Luciferase reporter construct. Only those clones were selected in which ligand independent induction of luciferase was minimal.
5×10^5 clonally selected HEK293T-hSTING-Luciferase cells were seeded in 384-well plates in growth medium and stimulated with novel compounds. After 20 hr of stimulation supernatant were removed and secretary reporter gene activity were measured using the Quanti-Luc detection system (Invivogen) on a Spectramax i3X luminometer.
In the tables below, EC50 value ranges for exemplary compounds are given.
All compounds were first tested in a primary screen to obtain a ‘fold-induction’ over baseline levels of protein activity.

Sequence of hSTING(R232) (Q86WV6 whole entry H232R): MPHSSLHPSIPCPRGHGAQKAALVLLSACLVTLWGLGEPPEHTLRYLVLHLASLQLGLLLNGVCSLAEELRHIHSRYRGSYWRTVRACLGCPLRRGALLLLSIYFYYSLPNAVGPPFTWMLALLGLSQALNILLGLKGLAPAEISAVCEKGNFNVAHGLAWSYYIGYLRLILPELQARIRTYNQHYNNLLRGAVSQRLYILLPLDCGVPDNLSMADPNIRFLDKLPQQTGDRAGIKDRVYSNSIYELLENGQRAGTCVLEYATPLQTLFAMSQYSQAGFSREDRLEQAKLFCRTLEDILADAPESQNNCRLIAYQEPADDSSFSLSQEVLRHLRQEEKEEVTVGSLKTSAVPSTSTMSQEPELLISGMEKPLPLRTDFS

SMILES | EC50 [µM]
C[C@H]1c2ccc(C(=O)NCc3cc(F)cc(OCCO)c3)cc2N(Cc2c(F)cccc2Cl)C(=O)N1C [Example 266, (S)-1-(2-chloro-6-fluorobenzyl)-N-(3-fluoro-5-(2-hydroxyethoxy)benzyl)-3,4-dimethyl-2-oxo-1,2,3,4-tetrahydroquinazoline-7-carboxamide] | > 10
CC1c2ccc(C(=O)NCc3c(F)cc(F)cc3F)cc2N(Cc2c(F)cccc2OCCO)C(=O)N1C (stereo not drawn) [Example 236, 1-(2-fluoro-6-(2-hydroxyethoxy)benzyl)-3,4-dimethyl-2-oxo-N-(2,4,6-trifluorobenzyl)-1,2,3,4-tetrahydroquinazoline-7-carboxamide] | < 1
C[C@H]1c2ccc(C(=O)NCc3c(F)cc(F)cc3F)cc2N(Cc2c(F)cccc2NCCCO)C(=O)N1C [Example 278, (S)-1-(2-fluoro-6-((3-hydroxypropyl)amino)benzyl)-3,4-dimethyl-2-oxo-N-(2,4,6-trifluorobenzyl)-1,2,3,4-tetrahydroquinazoline-7-carboxamide] | < 1
CN1Cc2ccc(C(=O)NCc3c(F)cc(F)cc3F)cc2N(Cc2ccc(F)cc2F)C1=O [Example 8, 1-(2,4-difluorobenzyl)-3-methyl-2-oxo-N-(2,4,6-trifluorobenzyl)-1,2,3,4-tetrahydroquinazoline-7-carboxamide] | < 1
CC1c2ccc(C(=O)NCc3c(F)cc(F)cc3F)cc2N(Cc2ccc(F)cc2Cl)C(=O)N1C (stereo not drawn) [Example 221, 1-(2-chloro-4-fluorobenzyl)-3,4-dimethyl-2-oxo-N-(2,4,6-trifluorobenzyl)-1,2,3,4-tetrahydroquinazoline-7-carboxamide] | < 1
CC1c2ccc(C(=O)NCc3c(F)cc(F)cc3F)cc2N(Cc2c(F)cccc2NS(C)(=O)=O)C(=O)N1C (stereo not drawn) [Example 225, 1-(2-fluoro-6-(methylsulfonamido)benzyl)-3,4-dimethyl-2-oxo-N-(2,4,6-trifluorobenzyl)-1,2,3,4-tetrahydroquinazoline-7-carboxamide] | 1 to 10
CN1Cc2ccc(C(=O)NCc3cccc(-c4ccnn4C)c3)cc2N(Cc2c(F)cccc2Cl)C1=O [Example 29, 1-(2-chloro-6-fluorobenzyl)-3-methyl-N-(3-(1-methyl-1H-pyrazol-5-yl)benzyl)-2-oxo-1,2,3,4-tetrahydroquinazoline-7-carboxamide] | > 10
COc1cc(F)c(CNC(=O)c2ccc3c(c2)N(Cc2c(F)cccc2Cl)C(=O)N(C)C3)c(F)c1 [Example 60, 1-(2-chloro-6-fluorobenzyl)-N-(2,6-difluoro-4-methoxybenzyl)-3-methyl-2-oxo-1,2,3,4-tetrahydroquinazoline-7-carboxamide] | 1 to 10
CC1c2ccc(C(=O)NCc3c(F)cc(F)cc3F)cc2N(Cc2ccccc2F)C(=O)N1C (stereo not drawn) [Example 201, 1-(2-fluorobenzyl)-3,4-dimethyl-2-oxo-N-(2,4,6-trifluorobenzyl)-1,2,3,4-tetrahydroquinazoline-7-carboxamide] | < 1
CN1Cc2ccc(C(=O)NCc3c(F)cc(F)cc3F)cc2N(Cc2c(F)cccc2C(F)(F)F)C1=O [Example 56, 1-(2-fluoro-6-(trifluoromethyl)benzyl)-3-methyl-2-oxo-N-(2,4,6-trifluorobenzyl)-1,2,3,4-tetrahydroquinazoline-7-carboxamide] | 1 to 10
CN1Cc2ccc(C(=O)NCc3c(F)cc(F)cc3F)cc2N(Cc2cn(C)cn2)C1=O [Example 37, 3-methyl-1-((1-methyl-1H-imidazol-4-yl)methyl)-2-oxo-N-(2,4,6-trifluorobenzyl)-1,2,3,4-tetrahydroquinazoline-7-carboxamide] | > 10
CC1c2ccc(C(=O)NCc3c(F)cc(F)cc3F)cc2N(Cc2cc(OCC(=O)O)ccc2F)C(=O)N1C (stereo not drawn) [Example 229, 2-(3-((3,4-dimethyl-2-oxo-7-((2,4,6-trifluorobenzyl)carbamoyl)-3,4-dihydroquinazolin-1(2H)-yl)methyl)-4-fluorophenoxy)acetic acid] | > 10
C[C@H]1c2ccc(C(=O)NCc3c(F)cc(F)cc3F)cc2N(Cc2c(F)ccc(OC(=O)N(C)CCC(=O)OCc3ccccc3)c2Cl)C(=O)N1C [Example 140, (S)-Benzyl 3-((2-chloro-3-((3,4-dimethyl-2-oxo-7-((2,4,6-trifluorobenzyl)carbamoyl)-3,4-dihydroquinazolin-1(2H)-yl)methyl)-4-fluorophenoxy)carbonyl)(methylamino)propanoate] | > 10
COc1ccc2cc(CNC(=O)c3ccc4c(c3)N(Cc3c(F)cccc3Cl)C(=O)N(C)C4)oc2c1 [Example 22, 1-(2-chloro-6-fluorobenzyl)-N-((6-methoxybenzofuran-2-yl)methyl)-3-methyl-2-oxo-1,2,3,4-tetrahydroquinazoline-7-carboxamide] | > 10
CN1Cc2ccc(C(=O)NCc3c(F)cc(F)cc3F)cc2N(Cc2cccc(C(N)=O)c2)C1=O [Example 14, 1-(3-carbamoylbenzyl)-3-methyl-2-oxo-N-(2,4,6-trifluorobenzyl)-1,2,3,4-tetrahydroquinazoline-7-carboxamide] | 1 to 10
Cc1cc(CN2C(=O)N(C)C(C)c3ccc(C(=O)NCc4c(F)cc(F)cc4F)cc32)no1 (stereo not drawn) [Example 200, 3,4-dimethyl-1-((5-methylisoxazol-3-yl)methyl)-2-oxo-N-(2,4,6-trifluorobenzyl)-1,2,3,4-tetrahydroquinazoline-7-carboxamide] | > 10
Cc1cc(CN2C(=O)N(C)C(C)c3ccc(C(=O)NCc4c(F)cc(F)cc4F)cc32)ccn1 (stereo not drawn) [Example 207, 3,4-dimethyl-1-((2-methylpyridin-4-yl)methyl)-2-oxo-N-(2,4,6-trifluorobenzyl)-1,2,3,4-tetrahydroquinazoline-7-carboxamide] | 1 to 10
C[C@H]1c2ccc(C(=O)NCc3ccc(F)cc3OCCO)cc2N(Cc2c(F)cccc2Cl)C(=O)N1C [Example 284, (S)-1-(2-chloro-6-fluorobenzyl)-N-(4-fluoro-2-(2-hydroxyethoxy)benzyl)-3,4-dimethyl-2-oxo-1,2,3,4-tetrahydroquinazoline-7-carboxamide] | > 10
CC1c2ccc(C(=O)NCc3c(F)cc(F)cc3F)cc2N(Cc2c(F)cc(Cl)cc2F)C(=O)N1C (stereo not drawn) [Example 222, 1-(4-chloro-2,6-difluorobenzyl)-3,4-dimethyl-2-oxo-N-(2,4,6-trifluorobenzyl)-1,2,3,4-tetrahydroquinazoline-7-carboxamide] | < 1
CN1Cc2ccc(C(=O)NCc3cc4cc(F)ccc4o3)cc2N(Cc2c(F)cccc2Cl)C1=O [Example 24, 1-(2-chloro-6-fluorobenzyl)-N-((5-fluorobenzofuran-2-yl)methyl)-3-methyl-2-oxo-1,2,3,4-tetrahydroquinazoline-7-carboxamide] | 1 to 10
CC1c2ccc(C(=O)NCc3ccc(OCC(=O)O)cc3)cc2N(Cc2c(F)cccc2Cl)C(=O)N1C (stereo not drawn) [Example 240, 2-(4-((1-(2-chloro-6-fluorobenzyl)-3,4-dimethyl-2-oxo-1,2,3,4-tetrahydroquinazoline-7-carboxamido)methyl)phenoxy)acetic acid] | > 10
CN1Cc2ccc(C(=O)NCc3cccc4occc34)cc2N(Cc2c(F)cccc2Cl)C1=O [Example 50, N-(benzofuran-4-ylmethyl)-1-(2-chloro-6-fluorobenzyl)-3-methyl-2-oxo-1,2,3,4-tetrahydroquinazoline-7-carboxamide] | > 10
COc1ccc(CN2C(=O)N(C)C(C)c3ccc(C(=O)NCc4c(F)cc(F)cc4F)cc32)c(F)c1 (stereo not drawn) [Example 217, 1-(2-fluoro-4-methoxybenzyl)-3,4-dimethyl-2-oxo-N-(2,4,6-trifluorobenzyl)-1,2,3,4-tetrahydroquinazoline-7-carboxamide] | < 1
Cc1cccc(C)c1CN1C(=O)N(C)C(C)c2ccc(C(=O)NCc3c(F)cc(F)cc3F)cc21 (stereo not drawn) [Example 215, 1-(2,6-dimethylbenzyl)-3,4-dimethyl-2-oxo-N-(2,4,6-trifluorobenzyl)-1,2,3,4-tetrahydroquinazoline-7-carboxamide] | < 1
CN1Cc2ccc(C(=O)NCc3c(F)cc(F)cc3F)cc2N(Cc2cnsn2)C1=O [Example 35, l-((l,2,5-thiadiazol-3-yl)methyl)-3-methyl-2-oxo-N-(2,4,6-trifluorobenzyl)-1,2,3,4-tetrahydroquinazoline-7-carboxamide] | > 10
C[C@H]1c2ccc(C(=O)NCc3c(F)cc(F)cc3F)cc2N(Cc2c(Cl)cn(CCO)c(=O)c2F)C(=O)N1C [Example 297, (S)-1-((5-chloro-3-fluoro-1-(2-hydroxyethyl)-2-oxo-1,2-dihydropyridin-4-yl)methyl)-3,4-dimethyl-2-oxo-N-(2,4,6-trifluorobenzyl)-1,2,3,4-tetrahydroquinazoline-7-carboxamide] | > 10
CC1c2ccc(C(=O)NCc3ccc(F)cc3F)cc2N(Cc2ccccc2F)C(=O)N1C (stereo not drawn) [Example 197, N-(2,4-difluorobenzyl)-1-(2-fluorobenzyl)-3,4-dimethyl-2-oxo-1,2,3,4-tetrahydroquinazoline-7-carboxamide] | < 1
